Like-named read-outs stand apart in the source and are kept apart here.
How the values were obtained:
[1] = Plasma pharmacokinetics, cycle 1 day 3; format: in vivo, human
early-stage TNBC = conditions: weekly paclitaxel alone, then AC; 95% PI, 9-43%; cited from earlier work
patients [2] = conditions: cited from earlier work
metastatic TNBC = conditions: cited from earlier work
patients [3] = conditions: olaparib with carboplatin; cited from earlier work
[4] = tested on: patients with advanced solid tumors
BRCA mutated TNBC = conditions: addition of 120 mg BID to carboplatin plus paclitaxel; BROCADE 2; cited from earlier work
[5] = tested on: patients with advanced solid tumors; format: in vivo
[6] = cisplatin without veliparib, BRCA-like phenotype
[7] = Expansion (n = 12), veliparib 150 mg bid continuous
[8] = Level 1 (n = 3), veliparib 50 mg bid
[9] = Level 2 (n = 3), veliparib 100 mg bid
[10] = Level 3 (n = 7), veliparib 150 mg bid
[11] = Level 4 (n = 5), veliparib 200 mg bid

N.N.O=C([O-])C1(C(=O)[O-])CCC1.[Pt+2] [Carboplatin, carboplatin]
Cmax and AUC0-∞, impact of veliparib dose ([1]; ultrafilterable carboplatin, 20 evaluable patients): not impacted

CC(=O)O[C@H]1C(=O)[C@@]2(C)[C@H]([C@H](OC(=O)c3ccccc3)[C@]3(O)C[C@H](OC(=O)[C@H](O)[C@@H](NC(=O)c4ccccc4)c4ccccc4)C(C)=C1C3(C)C)[C@]1(OC(C)=O)CO[C@@H]1C[C@@H]2O [Paclitaxel, paclitaxel]
exposure (Cmax and AUC0-∞) across veliparib doses ([1]; human, in vivo): not altered | complete pathological response (cPR) rate (early-stage TNBC): 26%

Cn1ncnc1[C@H]1c2n[nH]c(=O)c3cc(F)cc(c23)N[C@@H]1c1ccc(F)cc1 [Talazoparib, talazoparib]
single agent MTD (patients [2]; single agent): 1000 µg | patients with dose modification (patients [2]; talazoparib with carboplatin AUC5-6 and paclitaxel 80 mg/m^2 days 1, 8, 15 of 21-day cycles): 87-100%

N.N.[Cl][Pt][Cl] [cisplatin]
PFS at 1 year (metastatic TNBC; [6]): 7% | median PFS (metastatic TNBC; [6]): 4.3 months | rate of grade 3/4 neutropenia (metastatic TNBC; in vivo): 19%

O=C(c1cc(Cc2n[nH]c(=O)c3ccccc23)ccc1F)N1CCN(C(=O)C2CC2)CC1 [olaparib]
tolerability with carboplatin (patients [3]): not tolerable

C[C@]1(c2nc3c(C(N)=O)cccc3[nH]2)CCCN1 [veliparib]
PFS at 1 year (metastatic TNBC; veliparib with cisplatin, BRCA-like phenotype): 20% | rate of grade 3/4 neutropenia (metastatic TNBC; veliparib with cisplatin): 46% | clearance ([1]; human, in vivo): 387 mL/min | half-life ([1]; human, in vivo): 4.8 h | AUC0-12 and Cmax versus dose ([1]; in vivo): increase linearly with dose | DLT ([4]; in vivo): without DLT | patients who experienced a DLT ([4]; in vivo): none | MTD ([4]; with weekly carboplatin and paclitaxel, enrollment to DL4 terminated): not formally reached | ORR (BRCA mutated TNBC): improved ORR | PFS benefit (BRCA mutated TNBC): did not translate into a PFS benefit | thrombocytopenia grade 3/4 ([5]; 4 patients of 30, all dose levels and cycles): 13% | anemia grade 3/4 ([5]; 7 patients of 30, all dose levels and cycles): 23% | neutropenia grade 3/4 ([5]; 18 patients of 30, all dose levels and cycles): 60% | relationship between veliparib dose level and incidence or severity of adverse events ([5]; 50-200 mg bid): no clear relationship | ALT increased, any grade ([5]; All Patients (N = 30)): 4 (13%) | AST increased, any grade ([5]; All Patients (N = 30)): 3 (10%) | Anemia, any grade ([5]; All Patients (N = 30)): 20 (67%) | Anemia, grade ≥ 3 ([5]; All Patients (N = 30)): 7 (23%) | Anorexia, any grade ([5]; All Patients (N = 30)): 3 (10%) | Any Grade ≥ 3 AE ([5]; All Patients (N = 30)): 24 (80%) | Any grade AE ([5]; All Patients (N = 30)): 28 (93%) | Bruising, any grade ([5]; All Patients (N = 30)): 2 (7%) | Dehydration, grade ≥ 3 ([5]; All Patients (N = 30)): 1 (3%) | Diarrhea, any grade ([5]; All Patients (N = 30)): 5 (17%) | Dysgeusia, any grade ([5]; All Patients (N = 30)): 2 (7%) | Fatigue, any grade ([5]; All Patients (N = 30)): 18 (60%) | Fatigue, grade ≥ 3 ([5]; All Patients (N = 30)): 1 (3%) | Febrile neutropenia, grade ≥ 3 ([5]; All Patients (N = 30)): 1 (3%) | Headache, any grade ([5]; All Patients (N = 30)): 3 (10%) | Hot flashes, any grade ([5]; All Patients (N = 30)): 4 (13%) | Hyperglycemia, any grade ([5]; All Patients (N = 30)): 2 (7%) | Hypocalcemia, any grade ([5]; All Patients (N = 30)): 3 (10%) | Hyponatremia, any grade ([5]; All Patients (N = 30)): 2 (7%) | Hypophosphatemia, any grade ([5]; All Patients (N = 30)): 4 (13%) | Hypophosphatemia, grade ≥ 3 ([5]; All Patients (N = 30)): 1 (3%) | Lymphocyte count decreased, any grade ([5]; All Patients (N = 30)): 11 (37%) | Lymphocyte count decreased, grade ≥ 3 ([5]; All Patients (N = 30)): 7 (23%) | Myalgia, any grade ([5]; All Patients (N = 30)): 3 (10%) | Nausea, any grade ([5]; All Patients (N = 30)): 16 (53%) | Nausea, grade ≥ 3 ([5]; All Patients (N = 30)): 2 (7%) | Neutrophil count decreased, any grade ([5]; All Patients (N = 30)): 24 (80%) | Neutrophil count decreased, grade ≥ 3 ([5]; All Patients (N = 30)): 18 (60%) | Peripheral sensory neuropathy, any grade ([5]; All Patients (N = 30)): 3 (10%) | Platelet count decreased, any grade ([5]; All Patients (N = 30)): 22 (73%) | Platelet count decreased, grade ≥ 3 ([5]; All Patients (N = 30)): 4 (13%) | Rash maculo-papular, any grade ([5]; All Patients (N = 30)): 2 (7%) | Vomiting, any grade ([5]; All Patients (N = 30)): 4 (13%) | Vomiting, grade ≥ 3 ([5]; All Patients (N = 30)): 1 (3%) | White blood cell decreased, any grade ([5]; All Patients (N = 30)): 22 (73%) | White blood cell decreased, grade ≥ 3 ([5]; All Patients (N = 30)): 15 (50%) | ALT increased, any grade [5, 7]: 3 (25%) | AST increased, any grade [5, 7]: 2 (17%) | Anemia, any grade [5, 7]: 9 (75%) | Anemia, grade ≥ 3 [5, 7]: 3 (25%) | Anorexia, any grade [5, 7]: 2 (17%) | Any Grade ≥ 3 AE [5, 7]: 11 (92%) | Any grade AE [5, 7]: 12 (100%) | Bruising, any grade [5, 7]: 1 (8%) | Dehydration, grade ≥ 3 [5, 7]: 1 (8%) | Diarrhea, any grade [5, 7]: 3 (25%) | Fatigue, any grade [5, 7]: 8 (67%) | Febrile neutropenia, grade ≥ 3 [5, 7]: 1 (8%) | Headache, any grade [5, 7]: 2 (17%) | Hot flashes, any grade [5, 7]: 2 (17%) | Hypocalcemia, any grade [5, 7]: 1 (8%) | Hypophosphatemia, any grade [5, 7]: 3 (25%) | Hypophosphatemia, grade ≥ 3 [5, 7]: 1 (8%) | Lymphocyte count decreased, any grade [5, 7]: 7 (58%) | Lymphocyte count decreased, grade ≥ 3 [5, 7]: 3 (25%) | Myalgia, any grade [5, 7]: 2 (17%) | Nausea, any grade [5, 7]: 10 (83%) | Nausea, grade ≥ 3 [5, 7]: 1 (8%) | Neutrophil count decreased, any grade [5, 7]: 10 (83%) | Neutrophil count decreased, grade ≥ 3 [5, 7]: 6 (50%) | Peripheral sensory neuropathy, any grade [5, 7]: 2 (17%) | Platelet count decreased, any grade [5, 7]: 10 (83%) | Platelet count decreased, grade ≥ 3 [5, 7]: 2 (17%) | Vomiting, any grade [5, 7]: 3 (25%) | White blood cell decreased, any grade [5, 7]: 10 (83%) | White blood cell decreased, grade ≥ 3 [5, 7]: 7 (58%) | Any Grade ≥ 3 AE [5, 8]: 2 (67%) | Any grade AE [5, 8]: 2 (67%) | Neutrophil count decreased, any grade [5, 8]: 2 (67%) | Neutrophil count decreased, grade ≥ 3 [5, 8]: 2 (67%) | Platelet count decreased, any grade [5, 8]: 1 (33%) | Anemia, any grade [5, 9]: 3 (100%) | Any Grade ≥ 3 AE [5, 9]: 2 (67%) | Any grade AE [5, 9]: 3 (100%) | Bruising, any grade [5, 9]: 1 (33%) | Diarrhea, any grade [5, 9]: 2 (67%) | Dysgeusia, any grade [5, 9]: 1 (33%) | Fatigue, any grade [5, 9]: 3 (100%) | Hot flashes, any grade [5, 9]: 1 (33%) | Hyperglycemia, any grade [5, 9]: 1 (33%) | Hypocalcemia, any grade [5, 9]: 1 (33%) | Hyponatremia, any grade [5, 9]: 1 (33%) | Myalgia, any grade [5, 9]: 1 (33%) | Nausea, any grade [5, 9]: 3 (100%) | Neutrophil count decreased, any grade [5, 9]: 3 (100%) | Neutrophil count decreased, grade ≥ 3 [5, 9]: 2 (67%) | Platelet count decreased, any grade [5, 9]: 3 (100%) | Rash maculo-papular, any grade [5, 9]: 1 (33%) | White blood cell decreased, any grade [5, 9]: 3 (100%) | White blood cell decreased, grade ≥ 3 [5, 9]: 1 (33%) | ALT increased, any grade [5, 10]: 1 (14%) | AST increased, any grade [5, 10]: 1 (14%) | Anemia, any grade [5, 10]: 4 (57%) | Anemia, grade ≥ 3 [5, 10]: 2 (29%) | Anorexia, any grade [5, 10]: 1 (14%) | Any Grade ≥ 3 AE [5, 10]: 4 (57%) | Any grade AE [5, 10]: 6 (86%) | Dysgeusia, any grade [5, 10]: 1 (14%) | Fatigue, any grade [5, 10]: 3 (43%) | Headache, any grade [5, 10]: 1 (14%) | Hot flashes, any grade [5, 10]: 1 (14%) | Hyperglycemia, any grade [5, 10]: 1 (14%) | Hypocalcemia, any grade [5, 10]: 1 (14%) | Hyponatremia, any grade [5, 10]: 1 (14%) | Hypophosphatemia, any grade [5, 10]: 1 (14%) | Lymphocyte count decreased, any grade [5, 10]: 2 (29%) | Lymphocyte count decreased, grade ≥ 3 [5, 10]: 2 (29%) | Nausea, any grade [5, 10]: 2 (29%) | Neutrophil count decreased, any grade [5, 10]: 4 (57%) | Neutrophil count decreased, grade ≥ 3 [5, 10]: 3 (43%) | Peripheral sensory neuropathy, any grade [5, 10]: 1 (14%) | Platelet count decreased, any grade [5, 10]: 4 (57%) | Platelet count decreased, grade ≥ 3 [5, 10]: 2 (29%) | Rash maculo-papular, any grade [5, 10]: 1 (14%) | White blood cell decreased, any grade [5, 10]: 4 (57%) | White blood cell decreased, grade ≥ 3 [5, 10]: 2 (29%) | Anemia, any grade [5, 11]: 4 (80%) | Anemia, grade ≥ 3 [5, 11]: 2 (40%) | Any Grade ≥ 3 AE [5, 11]: 5 (100%) | Any grade AE [5, 11]: 5 (100%) | Fatigue, any grade [5, 11]: 4 (80%) | Fatigue, grade ≥ 3 [5, 11]: 1 (20%) | Lymphocyte count decreased, any grade [5, 11]: 2 (40%) | Lymphocyte count decreased, grade ≥ 3 [5, 11]: 2 (40%) | Nausea, any grade [5, 11]: 1 (20%) | Nausea, grade ≥ 3 [5, 11]: 1 (20%) | Neutrophil count decreased, any grade [5, 11]: 5 (100%) | Neutrophil count decreased, grade ≥ 3 [5, 11]: 5 (100%) | Platelet count decreased, any grade [5, 11]: 4 (80%) | Vomiting, any grade [5, 11]: 1 (20%) | Vomiting, grade ≥ 3 [5, 11]: 1 (20%) | White blood cell decreased, any grade [5, 11]: 5 (100%) | White blood cell decreased, grade ≥ 3 [5, 11]: 5 (100%) | came off study due to toxicity ([5]; of the total 30 patients enrolled): 10 patients

Reference: paper PMC10710035 (Breast cancer research and treatment, 2023)
